Measured values reported in patent US20230141101A1, “PDE4 INHIBITOR COMPOUND AND MEDICAL USE THEREOF” (Suzhou Longbotai Pharmaceuticals Co., Ltd., priority 2020, published 2023).

What was measured:
Format in all cases: biochemical
Conditions in all cases: 20 nM
PDE4A1A = target: T1, PDE4A1A (Homo sapiens, UniProt P27815); experiment: PDE4 inhibitory activity assay (FAM-cAMP enzymatic reaction), PDE4A1A
T1 construct: purchased BPS 60040
Method in brief: (§1)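 Inhibition rates from a fluorescence read gave IC50 values. Each enzyme (PDE4A1A, PDE4B1, PDE4D2) sat with compound for 15 min at room temperature; FAM-cAMP then started a 30 min room-temperature reaction, ended with stop solution and left 60 min more.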

PDE4B1 = target: T2, PDE4B1 (Homo sapiens, UniProt Q07343); experiment: PDE4 inhibitory activity assay (FAM-cAMP enzymatic reaction), PDE4B1
T2 construct: purchased BPS 60041
Method in brief: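 Each isoform is incubated with test compound for 15 min at room temperature before FAM-cAMP substrate starts a 30-min reaction.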

PDE4D2 = PDE4D2 (Homo sapiens, UniProt Q08499); experiment: PDE4 inhibitory activity assay (FAM-cAMP enzymatic reaction), PDE4D2
Method in brief: as §1

T1 sequence (P27815 1-647 isoform P27815-4): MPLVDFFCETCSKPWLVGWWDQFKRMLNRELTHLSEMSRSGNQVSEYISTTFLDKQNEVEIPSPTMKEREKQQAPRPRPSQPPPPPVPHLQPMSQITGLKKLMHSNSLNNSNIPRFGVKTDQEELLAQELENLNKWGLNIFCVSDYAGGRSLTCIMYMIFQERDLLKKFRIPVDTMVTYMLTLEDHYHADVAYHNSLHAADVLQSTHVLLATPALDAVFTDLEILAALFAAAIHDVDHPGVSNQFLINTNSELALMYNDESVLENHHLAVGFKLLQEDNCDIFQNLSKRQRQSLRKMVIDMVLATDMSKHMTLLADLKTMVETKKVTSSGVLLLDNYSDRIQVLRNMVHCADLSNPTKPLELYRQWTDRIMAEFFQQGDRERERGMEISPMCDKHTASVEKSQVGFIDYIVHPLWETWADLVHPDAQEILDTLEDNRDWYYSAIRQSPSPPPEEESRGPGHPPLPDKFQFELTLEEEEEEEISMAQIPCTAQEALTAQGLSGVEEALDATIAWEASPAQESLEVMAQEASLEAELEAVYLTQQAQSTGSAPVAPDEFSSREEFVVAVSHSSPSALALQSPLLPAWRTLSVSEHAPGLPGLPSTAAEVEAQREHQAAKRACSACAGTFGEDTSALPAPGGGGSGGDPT
T2 sequence (Q07343 whole entry): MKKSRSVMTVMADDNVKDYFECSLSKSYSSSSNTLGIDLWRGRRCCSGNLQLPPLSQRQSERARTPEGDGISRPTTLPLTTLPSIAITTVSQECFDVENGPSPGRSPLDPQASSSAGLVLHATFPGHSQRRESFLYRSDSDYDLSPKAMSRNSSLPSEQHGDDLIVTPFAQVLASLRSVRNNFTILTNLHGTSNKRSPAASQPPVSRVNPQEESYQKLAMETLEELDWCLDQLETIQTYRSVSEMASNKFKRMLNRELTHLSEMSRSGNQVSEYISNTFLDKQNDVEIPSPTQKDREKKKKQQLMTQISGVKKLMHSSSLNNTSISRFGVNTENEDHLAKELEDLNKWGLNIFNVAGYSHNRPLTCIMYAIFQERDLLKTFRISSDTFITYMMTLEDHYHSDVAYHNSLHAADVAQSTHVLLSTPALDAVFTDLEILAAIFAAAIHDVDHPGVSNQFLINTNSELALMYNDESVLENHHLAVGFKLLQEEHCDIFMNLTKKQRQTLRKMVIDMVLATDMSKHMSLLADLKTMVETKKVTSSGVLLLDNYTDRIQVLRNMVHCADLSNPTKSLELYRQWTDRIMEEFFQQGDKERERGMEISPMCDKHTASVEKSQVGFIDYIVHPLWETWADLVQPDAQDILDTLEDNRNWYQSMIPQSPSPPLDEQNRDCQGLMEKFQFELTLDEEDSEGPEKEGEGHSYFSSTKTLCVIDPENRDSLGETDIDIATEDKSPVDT
Chain of PDE4D2 (Q08499 303-809): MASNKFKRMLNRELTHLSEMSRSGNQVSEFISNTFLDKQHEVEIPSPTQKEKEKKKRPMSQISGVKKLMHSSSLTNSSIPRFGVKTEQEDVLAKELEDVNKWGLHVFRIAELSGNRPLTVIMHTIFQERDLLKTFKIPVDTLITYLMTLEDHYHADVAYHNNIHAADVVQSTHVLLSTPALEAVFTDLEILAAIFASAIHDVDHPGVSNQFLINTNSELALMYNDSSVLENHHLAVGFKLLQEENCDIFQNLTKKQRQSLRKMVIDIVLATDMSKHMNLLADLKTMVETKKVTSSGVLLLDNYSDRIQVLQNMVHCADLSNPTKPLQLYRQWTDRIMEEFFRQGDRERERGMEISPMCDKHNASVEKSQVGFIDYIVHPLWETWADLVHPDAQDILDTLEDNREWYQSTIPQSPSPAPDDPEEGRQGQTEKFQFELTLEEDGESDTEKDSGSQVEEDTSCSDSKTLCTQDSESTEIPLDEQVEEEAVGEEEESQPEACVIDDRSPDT

| Compound | PDE4 A1 inhibitory effect at 20 nM (PDE4A1A) | PDE4 B1 inhibitory effect at 20 nM (PDE4B1) | PDE4 D2 inhibitory effect at 20 nM (PDE4D2) |
| --- | --- | --- | --- |
| CCOc1nc([C@@H](CS(C)(=O)=O)n2c(=O)[nH]c3cc(-c4ccc(F)cc4)ccc32)ccc1OC [Ex. 135, (S)-1-(1-(6-ethoxy-5-methoxypyridin-2-yl)-2-(methylsulfonyl)ethyl)-5-(4-fluorophenyl)-1H-benzo[d]imidazol-2(3H)-one] | + | + | + |
| CCOc1nc([C@@H](CS(C)(=O)=O)n2c(=O)[nH]c3cc(-c4ccccc4CC)ccc32)ccc1OC [Ex. 150, (S)-1-(1-(6-ethoxy-5-methoxypyridin-2-yl)-2-(methylsulfonyl)ethyl)-5-(2-ethylphenyl)-1H-benzo[d]imidazol-2(3H)-one] | + | + | + |
| CCOc1nc([C@@H](CS(C)(=O)=O)n2c(=O)[nH]c3cc(-c4ccc(C)cc4C)ccc32)ccc1OC [Ex. 162, (S)-5-(2,4-dimethylphenyl)-1-(1-(6-ethoxy-5-methoxypyridin-2-yl)-2-(methylsulfonyl)ethyl)-1H-benzo[d]imidazol-2(3H)-one] | + | + | + |
| CCOc1nc([C@@H](CS(C)(=O)=O)n2c(=O)[nH]c3c(-c4ccccc4OC)cccc32)ccc1OC [Ex. 203, (S)-1-(1-(6-ethoxy-5-methoxypyridin-2-yl)-2-(methylsulfonyl)ethyl)-4-(2-methoxyphenyl)-1H-benzo[d]imidazol-2(3H)-one] | + | + | + |
| CCOc1nc([C@@H](CS(C)(=O)=O)n2c(=O)[nH]c3c(C)c(-c4ccc(F)cc4OC)cnc32)ccc1OC [Ex. 45, (S)-6-(4-fluoro-2-methoxyphenyl)-3-(1-(6-ethoxy-5-methoxypyridin-2-yl)-2-(methylsulfonyl)ethyl)-7-methyl-1H-imidazo[4,5-b]pyridin-2(3H)-one] | + | + | + |
| CCOc1nc([C@@H](CS(C)(=O)=O)n2c(=O)[nH]c3cc(-c4cc(F)ccc4F)ccc32)ccc1OC [Ex. 160, (S)-5-(2,5-difluorophenyl)-1-(1-(6-ethoxy-5-methoxypyridin-2-yl)-2-(methylsulfonyl)ethyl)-1H-benzo[d]imidazol-2(3H)-one] | + | + | + |
| CCOc1nc([C@@H](CS(C)(=O)=O)n2c(=O)n(C)c3cc(-c4ccc(F)cc4F)ccc32)ccc1OC [Ex. 157, (S)-5-(2,4-difluorophenyl)-1-(1-(6-ethoxy-5-methoxypyridin-2-yl)-2-(methylsulfonyl)ethyl)-3-methyl-1H-benzo[d]imidazol-2(3H)-one] | + | + | + |
| CCOc1nc([C@H](CS(C)(=O)=O)n2c(=O)[nH]c3cc(-c4cc(F)ccc4F)cnc32)ccc1OC [Ex. 98, (R)-6-(2,5-difluorophenyl)-3-(1-(6-ethoxy-5-methoxypyridin-2-yl)-2-(methylsulfonyl)ethyl)-1H-imidazo[4,5-b]pyridin-2(3H)-one] | − | − | − |
| CCOc1nc([C@H](CS(C)(=O)=O)n2c(=O)[nH]c3c(C)c(-c4ccccn4)cnc32)ccc1OC [Ex. 18, (R)-3-(1-(6-ethoxy-5-methoxypyridin-2-yl)-2-(methylsulfonyl)ethyl)-7-methyl-6-(pyridin-2-yl)-1H-imidazo[4,5-b]pyridin-2(3H)-one] | − | − | − |
| CCOc1nc([C@@H](CS(C)(=O)=O)n2c(=O)n(C)c3cc(-c4cc(F)c(F)cc4F)ccc32)ccc1OC [Ex. 159, (S)-5-(2,4,5-trifluorophenyl)-1-(1-(6-ethoxy-5-methoxypyridin-2-yl)-2-(methylsulfonyl)ethyl)-3-methyl-1H-benzo[d]imidazol-2(3H)-one] | + | + | + |
| CCOc1nc([C@@H](CS(C)(=O)=O)N2C(=O)c3csc(NC(=O)CN(CC)CC)c3C2=O)ccc1OC [Ex. 229, (S)-2-(diethylamino)-N-(5-(1-(6-ethoxy-5-methoxypyridin-2-yl)-2-(methylsulfonyl)ethyl)-4,6-dioxo-5,6-dihydro-4H-thieno[3,4-c]pyrrol-1-yl)acetamide] | + | + | + |
| CCOc1nc([C@@H](CS(C)(=O)=O)n2c(=O)[nH]c3c(-c4ccccc4C)cccc32)ccc1OC [Ex. 204, (S)-1-(1-(6-ethoxy-5-methoxypyridin-2-yl)-2-(methylsulfonyl)ethyl)-4-(o-methylphenyl)-1H-benzo[d]imidazol-2(3H)-one] | + | + | + |
| CCOc1nc([C@@H](CS(C)(=O)=O)n2c(=O)[nH]c3c(C)c(Br)cnc32)ccc1OC [Ex. 73, (S)-3-(1-(6-ethoxy-5-methoxypyridin-2-yl)-2-(methylsulfonyl)ethyl)-6-bromo-7-methyl-1H-imidazo[4,5-b]pyridin-2(3H)-one] | + | + | + |

More lines, now with the values ahead:

| PDE4 A1 inhibitory effect at 20 nM (PDE4A1A) | PDE4 B1 inhibitory effect at 20 nM (PDE4B1) | PDE4 D2 inhibitory effect at 20 nM (PDE4D2) | Compound |
| --- | --- | --- | --- |
| + | + | + | CCOc1nc([C@@H](CS(C)(=O)=O)n2c(=O)[nH]c3c(C)c(-c4cc(C)ccc4F)cnc32)ccc1OC [Ex. 38, (S)-6-(2-fluoro-5-methylphenyl)-3-(1-(6-ethoxy-5-methoxypyridin-2-yl)-2-(methylsulfonyl)ethyl)-7-methyl-1H-imidazo[4,5-b]pyridin-2(3H)-one] |
| − | − | − | CCOc1nc([C@H](CS(C)(=O)=O)n2c(=O)[nH]c3c(C)c(-c4c(F)cccc4F)cnc32)ccc1OC [Ex. 24, (R)-6-(2,6-difluorophenyl)-3-(1-(6-ethoxy-5-methoxypyridin-2-yl)-2-(methylsulfonyl)ethyl)-7-methyl-1H-imidazo[4,5-b]pyridin-2(3H)-one] |
| + | + | + | CCOc1nc([C@@H](CS(C)(=O)=O)n2c(=O)[nH]c3cc(-c4c(F)cccc4OC)cnc32)ccc1OC [Ex. 121, (S)-6-(6-fluoro-2-methoxyphenyl)-3-(1-(6-ethoxy-5-methoxypyridin-2-yl)-2-(methylsulfonyl)ethyl)-1H-imidazo[4,5-b]pyridin-2(3H)-one] |
| + | + | + | CCOc1nc([C@@H](CS(C)(=O)=O)n2c(=O)n(C)c3cc(-c4c(F)cccc4OC)ccc32)ccc1OC [Ex. 191, (S)-5-(6-fluoro-2-methoxyphenyl)-1-(1-(6-ethoxy-5-methoxypyridin-2-yl)-2-(methylsulfonyl)ethyl)-3-methyl-1H-benzo[d]imidazol-2(3H)-one] |
| − | − | − | CCOc1nc([C@H](CS(C)(=O)=O)n2c(=O)[nH]c3c(C)c(-c4ccccc4)cnc32)ccc1OC(F)F [Ex. 62, (R)-3-(1-(5-(difluoromethoxy)-6-ethoxypyridin-2-yl)-2-(methylsulfonyl)ethyl)-7-methyl-6-phenyl-1H-imidazo[4,5-b]pyridin-2(3H)-one] |
| + | + | + | CCOc1nc([C@@H](CS(C)(=O)=O)n2c(=O)n(C)c3cc(-c4cccc(C)c4C)cnc32)ccc1OC [Ex. 104, (S)-6-(2,3-dimethylphenyl)-3-(1-(6-ethoxy-5-methoxypyridin-2-yl)-2-(methylsulfonyl)ethyl)-1-methyl-1H-imidazo[4,5-b]pyridin-2(3H)-one] |
| + | + | + | CCOc1nc([C@@H](CS(C)(=O)=O)n2c(=O)[nH]c3c(C)c(-c4cc(F)ccc4C)cnc32)ccc1OC [Ex. 36, (S)-6-(5-fluoro-2-methylphenyl)-3-(1-(6-ethoxy-5-methoxypyridin-2-yl)-2-(methylsulfonyl)ethyl)-7-methyl-1H-imidazo[4,5-b]pyridin-2(3H)-one] |
| + | + | + | CCOc1nc([C@@H](CS(C)(=O)=O)n2c(=O)n(C)c3c(C)c(-c4ccccc4F)cnc32)ccc1OC(F)F [Ex. 65, (S)-3-(1-(5-(difluoromethoxy)-6-ethoxypyridin-2-yl)-2-(methylsulfonyl)ethyl)-6-(2-fluorophenyl)-1,7-dimethyl-1H-imidazo[4,5-b]pyridin-2(3H)-one] |
| + | + | + | CCOc1nc([C@@H](CS(C)(=O)=O)n2c(=O)n(CC(F)F)c3c(C)c(-c4ccccc4F)cnc32)ccc1OC [Ex. 56, (S)-1-(2,2-difluoroethyl)-3-(1-(6-ethoxy-5-methoxypyridin-2-yl)-2-(methylsulfonyl)ethyl)-6-(2-fluorophenyl)-7-methyl-1H-imidazo[4,5-b]pyridin-2(3H)-one] |
